The results in this text go back to patent US11479551B2, “MTA-cooperative PRMT5 inhibitors” (Mirati Therapeutics, Inc., priority 2019, dated 2022).

Where two headings read alike, the source gives them in different places.

The subject of assay [1] is HCT116 homozygous MTAP knockout cells. Description: Proliferation assay (CellTiter-Glo, 10 days of treatment), HCT116 MTAP knockout. Particulars: read-out: Proliferation HCT116MTAP_KO IC50. Type of assay: cell-based. As to the method:
(§1) 1. HCT116 MTAP Knockout Model
(§2) HCT116 cells were genetically engineered to knock out the function of both MTAP alleles using a CRISPR/Cas9 system and an sgRNA targeting the MTAP gene. Following Cas9/MTAP sgRNA transduction, clones were screened to confirm that each allele of the MTAP gene had been inactivated (i.e., homozygous MTAP knock out) creating an MTAP-deficient cell.
(§3) Control samples were analyzed in parallel.
Briefly, on Day 0, 250 HCT116 parental or HCT116 homozygous MTAP knockout cell were seeded in 96 well plates in McCoy's 5A supplemented with 10% fetal bovine serum and pen/strep and the cells were incubated overnight at 37° C. plus 5% CO2.
The following day, cells were treated with DMSO vehicle control or a dose response of PRMT5 inhibitors and incubated at 37 C plus 5% CO2 for five days. On Day 6, the cells were trypsinized and split 1:10 into new 96-well plates with fresh medium containing the same concentration of PRMT5 inhibitor and incubated for an additional 5 days at 37° C. plus 5% CO^2.
On Day 11, the viability of the cells was measured using a CTG assay kit (CellTiter-Glo; Promega cat.no G7573) in accordance with the manufacturer's instructions. The IC50 values for each compound after 10 days of treatment were calculated using GraphPad PRISM software.

The test system of assay [2] is PRMT5-dependent Symmetric Di-methyl Arginine signal in HCT116 homozygous MTAP knockout cells. The assay can be described thus: SYM11 In-Cell Western, HCT116 MTAP knockout. The format is cell-based. Particulars: Homo sapiens, HCT-116, 96 h, HCT116 homozygous MTAP knockout cells, 4 days of treatment, SYM11/DRAQ5 ratio; read-out: In-cell-Western (SYM11) HCT116 MTAP_KO IC50. As to the method:
as §1, §2, §3
Briefly, on Day 0, 2,000 HCT116 parental or HCT116 homozygous MTAP knockout cells were seeded in 96 well plates in McCoy's 5A supplemented with 10% fetal bovine serum and pen/strep and the cells were incubated overnight at 37° C. plus 5% CO2. The following day, cells were treated with DMSO vehicle control or a dose response of PRMT5 inhibitors, and incubated at 37° C. plus 5% CO^2 for four days.
After 4 days of treatment, the cells were fixed by adding 50 μl of 4% paraformaldehyde solution to each well and the cells were incubated for 20 min at room temperature. The paraformaldehyde solution was removed, 150 μl of ice-cold methanol was added and the plate was placed −20° C. for 10 minutes. The methanol was removed, 150 μl of Odyssey Blocking buffer+0.05% Tween20 was added and the plate was incubated at room temperature with shaking for one hour.
The primary SYM11 antibody solution was removed by aspiration and the wells were washed three consecutive times with phosphate buffered saline containing 0.1% Tween-20 (PBST).
The secondary antibody solution was removed by aspiration and the wells were washed three consecutive times with PB ST.
The SYM11 signal and the DRAQ5 signal were quantified using a Li-Cor Odyssey machine reading at […], respectively. The SYM11/DRAQ5 ratio was used to calculate the inhibition of Symmetric Dimethyl Arginine as percent of DMSO control.

In assay [3] the target is T1, PRMT5/MEP50 complex (Homo sapiens (Human), UniProt O14744). The assay can be described thus: PRMT5:MEP50 FlashPlate Assay (histone H4 peptide substrate, plus and minus MTA). The format is biochemical. The procedure: (§4) The PRMT5 inhibitory activity of compounds of the present invention was determined using either a PRMT5:MEP50 FlashPlate Assay (Reaction Biology Corporation) or a PRMT5:MEP50 HotSpot Assay (Reaction Biology Corporation).
T1 sequence (O14744 2-637): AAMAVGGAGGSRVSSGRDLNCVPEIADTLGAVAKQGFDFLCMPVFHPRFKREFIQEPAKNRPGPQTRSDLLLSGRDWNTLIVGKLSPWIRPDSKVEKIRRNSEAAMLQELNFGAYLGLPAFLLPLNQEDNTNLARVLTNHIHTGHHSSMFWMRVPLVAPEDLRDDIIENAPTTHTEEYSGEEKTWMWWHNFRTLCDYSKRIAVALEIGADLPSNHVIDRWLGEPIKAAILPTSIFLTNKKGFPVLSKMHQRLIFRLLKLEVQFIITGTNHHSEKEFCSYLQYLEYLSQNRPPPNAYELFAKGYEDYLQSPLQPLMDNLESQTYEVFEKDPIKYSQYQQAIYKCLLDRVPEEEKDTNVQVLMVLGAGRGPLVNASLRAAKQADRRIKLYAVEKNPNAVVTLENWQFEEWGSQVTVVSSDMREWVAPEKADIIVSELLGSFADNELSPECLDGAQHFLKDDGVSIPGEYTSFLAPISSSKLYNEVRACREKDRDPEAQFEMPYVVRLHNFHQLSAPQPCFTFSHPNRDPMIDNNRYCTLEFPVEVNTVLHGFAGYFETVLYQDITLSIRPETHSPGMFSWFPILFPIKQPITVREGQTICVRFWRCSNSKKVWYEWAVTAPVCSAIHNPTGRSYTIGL
T1 sequence (Q9BQA1 2-342 partner): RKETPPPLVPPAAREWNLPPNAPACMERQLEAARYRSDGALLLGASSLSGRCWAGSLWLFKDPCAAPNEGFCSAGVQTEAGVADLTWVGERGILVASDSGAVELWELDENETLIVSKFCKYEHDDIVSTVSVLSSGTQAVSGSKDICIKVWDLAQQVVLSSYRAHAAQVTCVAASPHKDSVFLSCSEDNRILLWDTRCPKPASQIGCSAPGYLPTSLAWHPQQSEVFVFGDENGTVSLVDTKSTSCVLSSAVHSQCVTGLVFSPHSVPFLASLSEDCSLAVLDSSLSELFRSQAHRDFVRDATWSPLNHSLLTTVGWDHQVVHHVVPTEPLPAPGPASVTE
1. PRMT5:MEP50 FlashPlate Assay

The target in assay [4] is T1, PRMT5/MEP50 complex. The assay can be described thus: PRMT5:MEP50 HotSpot Assay (full-length histone H2A substrate, plus and minus MTA). Type of assay: biochemical. As to the method: as §4
The assay uses recombinant full-length histone H2A as the PRMT5 substrate. […] The reaction was stopped and transferred to filter paper for detection. The amount of tritiated H2A in each sample was determined using a scintillation counter.

[5] abbreviates: IC50 + 2 μM MTA (nM), in the presence of 2 μM MTA.
Setting [6] is: in the absence of MTA, read-out: IC50.
Setting [7] is: IC50 + 2 μM MTA, in the presence of 2 μM MTA.

On to `Cn1ncc(-c2ccc3c(=O)[nH]nc(CN)c3c2)c1-c1cccc2cncn12` [Example 4-233, 4-(aminomethyl)-6-(5-(imidazo[1,5-a]pyridin-5-yl)-1-methyl-1H-pyrazol-4-yl)phthalazin-1(2H)-one], for which the IC50 in assay [1] (Homo sapiens, HCT-116, 240 h) was 4730 nM; in assay [2], above 1000 nM.

As for `Cn1nc(Cl)c(-c2c(-c3ccc4c(=O)[nH]nc(CN)c4c3)cnn2C)c1C#N` [Example 4-219, 4-(4-(aminomethyl)-1-oxo-1,2-dihydrophthalazin-6-yl)-3′-chloro-1′,2-dimethyl-1′H,2H-[3,4′-bipyrazole]-5′-carbonitrile], the IC50 in assay [1] (Homo sapiens, HCT-116, 240 h) was 3610 nM; in assay [2] it was above 1000 nM.

`Cc1cc(OC2CC2)c(C#N)c(-c2c(-c3cc(Cl)c4c(=O)[nH]nc(CN)c4c3)cnn2C)c1F` [Example 10-20, 2-(4-(4-(aminomethyl)-8-chloro-1-oxo-1,2-dihydrophthalazin-6-yl)-1-methyl-1H-pyrazol-5-yl)-6-cyclopropoxy-3-fluoro-4-methylbenzonitrile]: the IC50 in assay [1] (Homo sapiens, HCT-116, 240 h) is 35 nM; in assay [2], 29 nM.

In the case of `Cn1ncc(-c2ccc3c(=O)[nH]nc(CN)c3c2)c1-c1cc(OC(F)(F)F)cc(OC2CC2)c1C#N` [Example 4-252, 2-(4-(4-(aminomethyl)-1-oxo-1,2-dihydrophthalazin-6-yl)-1-methyl-1H-pyrazol-5-yl)-6-cyclopropoxy-4-(trifluoromethoxy)benzonitrile], the IC50 came out at 87 nM in assay [1] (Homo sapiens, HCT-116, 240 h) and 4 nM in assay [2].

As for `Cn1ncc(-c2ccc3c(=O)[nH]nc(CN)c3c2)c1-c1ccc(Cl)c(OC2CC2)c1C#N` [Example 4-208, 6-(4-(4-(aminomethyl)-1-oxo-1,2-dihydrophthalazin-6-yl)-1-methyl-1H-pyrazol-5-yl)-3-chloro-2-cyclopropoxybenzonitrile], the IC50 was 124 nM in assay [1] (Homo sapiens, HCT-116, 240 h) and 11 nM in assay [2].

`Cn1ncc(-c2cc(C(F)(F)F)c3c(=O)[nH]nc(CN)c3c2)c1-c1ccc2ccccc2c1C#N` [Example 10-13, 2-(4-(4-(aminomethyl)-1-oxo-8-(trifluoromethyl)-1,2-dihydrophthalazin-6-yl)-1-methyl-1H-pyrazol-5-yl)-1-naphthonitrile]: the IC50 in assay [1] (Homo sapiens, HCT-116, 240 h) worked out at 85 nM; in assay [2], 16 nM.

`CCOc1cc(-c2cnn(C)c2-c2c(F)cc3ccccc3c2C#N)cc2c(CN)n[nH]c(=O)c12` (single isomer, unassigned) [Example 16-3, 2-[4-[4-(aminomethyl)-8-ethoxy-1-oxo-2H-phthalazin-6-yl]-2-methyl-pyrazol-3-yl]-3-fluoro-naphthalene-1-carbonitrile]: the IC50 in assay [1] amounted to 84 nM; in assay [2], 15 nM.

For `Cn1ncc(-c2ccc3c(=O)[nH]nc(CN)c3c2)c1-c1cc(Cl)cc(OC(F)F)c1C#N` [Example 4-243, 2-(4-(4-(aminomethyl)-1-oxo-1,2-dihydrophthalazin-6-yl)-1-methyl-1H-pyrazol-5-yl)-4-chloro-6-(difluoromethoxy)benzonitrile], the IC50 in assay [1] (Homo sapiens, HCT-116, 240 h) was found to be 285 nM; in assay [2], 51 nM.

Consider `Cn1ncc(-c2ccc3c(=O)[nH]nc(CN)c3c2)c1-c1cnn(Cc2ccccc2)c1C#N` [Example 4-211, 4-(4-(aminomethyl)-1-oxo-1,2-dihydrophthalazin-6-yl)-1′-benzyl-2-methyl-1′H,2H-[3,4′-bipyrazole]-5′-carbonitrile], for which the IC50 in assay [1] (Homo sapiens, HCT-116, 240 h) is 2150 nM; in assay [2], 197 nM.

In the case of `NCc1n[nH]c(=O)c2ccc(-c3cncc(Oc4ccccc4Cl)c3)cc12` [Example 4-71, 4-(aminomethyl)-6-(5-(2-chlorophenoxy)pyridin-3-yl)phthalazin-1(2H)-one], the IC50 in assay [3] (setting [5]) was 4.9 nM; in assay [3] (setting [6]), 116 nM; in assay [4] (setting [7]), 1050 nM; in assay [4] (setting [6]), above 10000 nM.

On to `N#Cc1ccccc1-c1cncc(-c2ccc3c(=O)[nH]nc(CN)c3c2)c1` [Example 3-40, 2-(5-(4-(aminomethyl)-1-oxo-1,2-dihydrophthalazin-6-yl)pyridin-3-yl)benzonitrile], for which the IC50 in assay [3] (setting [5]) turned out to be 6 nM; in assay [3] (setting [6]), 193 nM; in assay [4] (setting [7]), 9690 nM.

As for `NCc1n[nH]c(=O)c2ccc(-c3cnn4c3CN(c3ccccc3)CC4)cc12` [Example 4-83, 4-(aminomethyl)-6-(5-phenyl-4,5,6,7-tetrahydropyrazolo[1,5-a]pyrazin-3-yl)phthalazin-1(2H)-one], the IC50 in assay [3] (setting [5]) was determined as 14 nM; in assay [3] (setting [6]), 344 nM; in assay [4] (setting [7]), 2710 nM.

For the compound `CCOc1ccc2ncc(-c3ccc4c(=O)[nH]nc(CN)c4c3)n2c1` [Example 4-36, 4-(aminomethyl)-6-(6-ethoxyimidazo[1,2-a]pyridin-3-yl)phthalazin-1(2H)-one], the IC50 stood at 13 nM in assay [3] (setting [5]), 541 nM in assay [3] (setting [6]) and 2800 nM in assay [4] (setting [7]).

As for `COc1ccc2ncc(-c3ccc4c(=O)[nH]nc(CN)c4c3)n2c1` [Example 4-16, 4-(aminomethyl)-6-(6-methoxyimidazo[1,2-a]pyridin-3-yl)phthalazin-1(2H)-one], the IC50 came out at 9.4 nM in assay [3] (setting [5]), 602 nM in assay [3] (setting [6]) and 8850 nM in assay [4] (setting [7]).

As for `Cc1ccc(Oc2cncc(-c3ccc4c(=O)[nH]nc(CN)c4c3)c2)c(C)c1` [Example 4-73, 4-(aminomethyl)-6-(5-(2,4-dimethylphenoxy)pyridin-3-yl)phthalazin-1(2H)-one], the values for the IC50 in assay [3] (setting [5]), in assay [3] (setting [6]) and in assay [4] (setting [7]) were 0.6 nM, 24 nM and 933 nM, respectively.

As for `CCc1c[nH]c2ncc(-c3ccc4c(=O)[nH]nc(CN)c4c3)cc12` [Example 4-45, 4-(aminomethyl)-6-(3-ethyl-1H-pyrrolo[2,3-b]pyridin-5-yl)phthalazin-1(2H)-one], the figures for the IC50 in assay [3] (setting [5]), in assay [3] (setting [6]) and in assay [4] (setting [7]) were 16 nM, 291 nM and 2790 nM, respectively.

Regarding `COc1cccc(-c2c(-c3ccc4c(=O)[nH]nc(CN)c4c3)cnn2C)c1` [Example 4-93, 4-(aminomethyl)-6-(5-(3-methoxyphenyl)-1-methyl-1H-pyrazol-4-yl)phthalazin-1(2H)-one], the IC50 in assay [3] (setting [5]) amounted to 3.3 nM; in assay [3] (setting [6]), 85 nM; in assay [4] (setting [7]), 845 nM.

In the case of `NCc1n[nH]c(=O)c2ccc(-c3cnc4[nH]ccc4c3)cc12` [Example 3-59, 4-(aminomethyl)-6-(1H-pyrrolo[2,3-b]pyridin-5-yl)phthalazin-1(2H)-one], the IC50 in assay [3] (setting [5]) was 7.7 nM; in assay [3] (setting [6]), 399 nM; in assay [4] (setting [7]), 1140 nM; in assay [4] (setting [6]), above 10000 nM.

`NCc1n[nH]c(=O)c2ccc(-c3cncc(Oc4ccccc4)c3)cc12` [Example 3-50, 4-(aminomethyl)-6-(5-phenoxypyridin-3-yl)phthalazin-1(2H)-one]: the IC50 is 10 nM in assay [3] (setting [5]), 277 nM in assay [3] (setting [6]), 3780 nM in assay [4] (setting [7]) and above 10000 nM in assay [4] (setting [6]).

With `Cc1c[nH]c2ncc(-c3ccc4c(=O)[nH]nc(CN)c4c3)cc12` [Example 4-40, 4-(aminomethyl)-6-(3-methyl-1H-pyrrolo[2,3-b]pyridin-5-yl)phthalazin-1(2H)-one], the figures for the IC50 in assay [3] (setting [5]), in assay [3] (setting [6]) and in assay [4] (setting [7]) were 10 nM, 276 nM and 3170 nM, respectively.

On to `COc1ccc(-c2c(-c3ccc4c(=O)[nH]nc(CN)c4c3)cnn2C)cc1` [Example 4-98, 4-(aminomethyl)-6-(5-(4-methoxyphenyl)-1-methyl-1H-pyrazol-4-yl)phthalazin-1(2H)-one], for which the IC50 came out at 2.1 nM in assay [3] (setting [5]), 90 nM in assay [3] (setting [6]) and 635 nM in assay [4] (setting [7]).
